Measured values as given in ChEMBL document CHEMBL5120939, “Novel Isoindolinone-Based Analogs of the Natural Cyclic Peptide Fenestin A: Synthesis and Antitumor Activity” (ACS Med Chem Lett, 2022).
The source made the active and inactive calls. No cut-off for these calls is given here. Numbered stars: 1 amine (or outer) side, 2 acyl side, 3 side chain; on linkers, the order of the positions; unused ones are H or OH. Square brackets hold non-standard residues; d marks the D form. Peptide text beside a SMILES is read from it. X1 = O=C1c2ccccc2[C@@](O)(CN(Cc2ccccc2)[*:1])N1CC(=O)[*:2]; X2 = O=C1c2ccccc2[C@](O)(CN(Cc2ccccc2)[*:1])N1CC(=O)[*:2]; Thz = O=C(O)[C@@H]1CSCN1

What was measured:
HepG2 [1] = assay: Antitumor activity against human HepG2 cells assessed as inhibition of cell growth incubated for 48 hrs by MTT assay; assay type: functional, cell-based; conditions: HepG2, 48 h
HeLa [2] = assay: Antitumor activity against human HeLa cells assessed as inhibition of cell growth by MTT assay; assay type: functional, cell-based
[3] = Cytotoxicity against mouse L929 cells assessed as cell growth inhibition incubated for 48 hrs by MTT assay; assay type: toxicity, cell-based
HeLa [4] = assay: cells; conditions: Homo sapiens, 48 h
Description: Antitumor activity against human HeLa cells assessed as inhibition of cell growth incubated for 48 hrs by MTT assay

HeLa [5] = assay: Effect on cell morphology in human HeLa cells assessed as cell shrinkage at 26.1 uM incubated for 48 hrs by fluorescent inverted microscopic analysis; assay type: functional, cell-based
HeLa [6] = assay: Effect on cell morphology in human HeLa cells assessed as disappearance of finger like protrusions at 26.1 uM incubated for 12 to 24 hrs by scanning electron microscopic analysis; assay type: functional, cell-based; conditions: time 12-24 hrs
HeLa [7] = assay: Induction of cell cycle arrest in human HeLa cells assessed as accumulation at G2/M phase at 12.3 uM by RNAse A/PI staining based flow cytometric analysis; assay type: functional; conditions: time 12-48 hrs, TDE = time-dependent effect
HeLa [8] = assay: Upregulation of cytochrome C expression in human HeLa cell cytosol at 6.2 to 24.6 uM incubated for 48 hrs by Western blotting analysis; assay type: functional, subcellular; conditions: dose 6.2-24.6 µM
HepG2 [9] = assay: Effect on cell morphology in human HepG2 cells assessed as decrease in cell contact at 26.1 uM incubated for 48 hrs by fluorescent inverted microscopic analysis; assay type: functional, cell-based
HepG2 [10] = assay: Effect on cell morphology in human HepG2 cells assessed as cell shrinkage at 26.1 uM incubated for 48 hrs by fluorescent inverted microscopic analysis; assay type: functional, cell-based
HeLa [11] = assay: Effect on intracellular calcium ion concentration in human HeLa assessed as increase in fluorescence intensity at 12.3 uM by Fluo-3 AM staining based flow cytometric analysis; assay type: functional, cell-based
HeLa [12] = assay: Effect on cell morphology in human HeLa cells assessed as appearance of round cells at 26.1 uM incubated for 12 to 24 hrs by scanning electron microscopic analysis; assay type: functional, cell-based; conditions: time 12-24 hrs
HeLa [13] = assay: Effect on cell morphology in human HeLa cells assessed as complete disruption at 26.1 uM incubated for 48 hrs by scanning electron microscopic analysis; assay type: functional, cell-based
HeLa [14] = assay: Downregulation of MDM2 protein expression in human HeLa cells at 6.2 to 24.6 uM incubated for 48 hrs by Western blotting analysis; assay type: functional, cell-based; conditions: dose 6.2-24.6 µM
HeLa [15] = assay: Effect on cell morphology in human HeLa cells assessed as decrease in cell contact at 26.1 uM incubated for 48 hrs by fluorescent inverted microscopic analysis; assay type: functional, cell-based
HeLa [16] = assay: Antitumor activity against human HeLa cells assessed as inhibition of lactate dehydrogenase activity at 37.5 to 200 uM incubated for 48 hrs by Lactate dehydrogenase activity assay; assay type: functional, cell-based; conditions: dose 37.5-200 µM
HeLa [17] = assay: Induction of mitochondrial membrane potential loss in human HeLa cells assessed as decrease in fluorescence intensity at 6.2 to 24.6 uM incubated for 12 to 48 hrs by Rhodamine 123 staining based flow cytometric analysis; assay type: functional, cell-based; conditions: dose 6.2-24.6 µM, time 12-48 hrs
HeLa [18] = assay: Upregulation of p53 protein expression in human HeLa cells at 6.2 to 24.6 uM incubated for 48 hrs by Western blotting analysis; assay type: functional, cell-based; conditions: dose 6.2-24.6 µM
HeLa [19] = assay: Induction of mitochondrial membrane potential loss in human HeLa cells assessed as decrease in fluorescence intensity […] at 12.3 uM by Rhodamine 123 staining based flow cytometric analysis; assay type: functional, cell-based; conditions: time 12-48 hrs, TDE = time-dependent effect

SMILES | IC50 (HepG2 [1]) | IC50 (HeLa [4]) | IC50 at 48 h [3] | also measured
CC[C@H](C)[C@@H]1NC(=O)[C@H](CC(C)C)NC(=O)[C@@H]2CSCN2C(=O)[C@H]2CSCN2C(=O)CN2C(=O)c3ccccc3[C@@]2(O)CN(Cc2ccccc2)C1=O | – | – | – | Activity (HeLa [5]): Active; Activity (HeLa [6]): Active; Activity (HeLa [7]): Tde; Activity (HeLa [8]): Active; Activity (HepG2 [9]): Active; Activity (HepG2 [10]): Active; Activity (HeLa [11]): Active; Activity (HeLa [12]): Active; Activity (HeLa [13]): Active; Activity (HeLa [14]): Active; Activity (HeLa [15]): Active; inhibition (HeLa [16]): Active; Activity (HeLa [17]): Active; Activity (HeLa [18]): Active; Activity (HeLa [19]): Tde
COc1cccc2c1C(=O)c1c(O)c3c(c(O)c1C2=O)C[C@@](O)(C(=O)CO)C[C@@H]3O[C@H]1C[C@H](N)[C@H](O)[C@H](C)O1 [DOXORUBICIN] | 73.5 µM | – | 326 µM | –
CC[C@H](C)[C@@H]1NC(=O)[C@H](CC(C)C)NC(=O)[C@@H]2CCCN2C(=O)CN2C(=O)c3ccccc3[C@]2(O)CN(Cc2ccccc2)C(=O)[C@@H]2CCCN2C1=O (cyclo(IP[X2]PL)) | 33.5 µM | 28.2 µM | > 400 µM | IC50 (HeLa [2]): 28.2 µM
CC[C@H](C)[C@@H]1NC(=O)[C@H](CC(C)C)NC(=O)[C@@H]2CSCN2C(=O)[C@@H]2CSCN2C(=O)CN2C(=O)c3ccccc3[C@@]2(O)CN(Cc2ccccc2)C1=O | 24.7 µM | 12.3 µM | 70.9 µM | –
CC[C@H](C)[C@@H]1NC(=O)[C@H](CC(C)C)NC(=O)[C@@H]2CSCN2C(=O)CN2C(=O)c3ccccc3[C@]2(O)CN(Cc2ccccc2)C(=O)[C@@H]2CSCN2C1=O | 27.3 µM | 69.3 µM | 293 µM | –
CC[C@H](C)[C@@H]1NC(=O)[C@H](CC(C)C)NC(=O)CN2C(=O)c3ccccc3[C@@]2(O)CN(Cc2ccccc2)C(=O)[C@@H]2CCCN2C(=O)[C@@H]2CCCN2C1=O (cyclo(IPP[X1]L)) | 93.3 µM | 105 µM | 284 µM | –

Second part, led by results:

IC50 (HepG2 [1]) | IC50 (HeLa [4]) | SMILES | IC50 at 48 h [3] | also measured
40.3 µM | 36.5 µM | CC[C@H](C)[C@@H]1NC(=O)[C@H](CC(C)C)NC(=O)[C@@H]2CCCN2C(=O)[C@@H]2CCCN2C(=O)CN2C(=O)c3ccccc3[C@]2(O)CN(Cc2ccccc2)C1=O (cyclo(I[X2]PPL)) | > 400 µM | IC50 (HeLa [2]): 36.5 µM
49 µM | 82.2 µM | CC[C@H](C)[C@@H]1NC(=O)[C@H](CC(C)C)NC(=O)CN2C(=O)c3ccccc3[C@@]2(O)CN(Cc2ccccc2)C(=O)[C@@H]2CSCN2C(=O)[C@@H]2CSCN2C1=O | 274 µM | –
26.9 µM | 23.7 µM | CC[C@H](C)[C@@H]1NC(=O)CN2C(=O)c3ccccc3[C@]2(O)CN(Cc2ccccc2)C(=O)[C@H](CC(C)C)NC(=O)[C@@H]2CSCN2C(=O)[C@@H]2CSCN2C1=O (cyclo(I[Thz][Thz]L[X2])) | > 400 µM | –
37.7 µM | 32.7 µM | CC[C@H](C)[C@@H]1NC(=O)CN2C(=O)c3ccccc3[C@]2(O)CN(Cc2ccccc2)C(=O)[C@H](CC(C)C)NC(=O)[C@@H]2CCCN2C(=O)[C@@H]2CCCN2C1=O (cyclo(IPPL[X2])) | > 400 µM | –
